Test results reported in patent US20230097866A1, “BACTERIAL TOPOISOMERASE INHIBITORS DERIVED FROM ISOMANNIDE” (Ohio State Innovation Foundation, priority 2020, published 2023).
Converted amounts (≈) assume the structure as drawn. Where two headings read alike, the source gives them in different places. Marks after values point to notes of the source that are not given here.

Key:
S. aureus ATCC 29213 [1] = test: MIC, CLSI broth microdilution, S. aureus ATCC 29213; assay type: cell-based; details: Staphylococcus aureus, ATCC29213; CLSI broth microdilution, triplicate; read-out: MIC ATCC 29213
[2] = system: S. aureus strain isolated from a cystic fibrosis patient; test: MIC, CLSI broth microdilution, CF isolate; assay type: cell-based; details: Staphylococcus aureus, read-out: MIC CF isolate
M. avium 700891 = test: MIC, microbroth dilution, M. avium; assay type: cell-based; details: Mycobacterium avium
Protocol: (§1) MICs were determined against the NTM strains […] avium ATCC 700891 MAC101 and M. abscessus 19977 using the microbroth dilution method. MIC was determined using optical density and a calorimetric growth indicator. For optical density ([…]), the MIC is considered the first concentration to inhibit growth when compared to an untreated growth control. A calorimetric growth indicator (i.e. Alamar Blue) was also added to confirm MIC value by observing color change from […], indicating no active growth.

TopoIV from S. aureus = TopoIV from S. aureus (Staphylococcus aureus, UniProt P0C1U9); test: biochemical; assay type: biochemical; details: for IC50: S. aureus TopoIV, read-out: TopoIV IC50; for TopoIV/gyrase IC50 ratio: S. aureus enzymes
Sequence of TopoIV from S. aureus (P0C1S7 whole entry): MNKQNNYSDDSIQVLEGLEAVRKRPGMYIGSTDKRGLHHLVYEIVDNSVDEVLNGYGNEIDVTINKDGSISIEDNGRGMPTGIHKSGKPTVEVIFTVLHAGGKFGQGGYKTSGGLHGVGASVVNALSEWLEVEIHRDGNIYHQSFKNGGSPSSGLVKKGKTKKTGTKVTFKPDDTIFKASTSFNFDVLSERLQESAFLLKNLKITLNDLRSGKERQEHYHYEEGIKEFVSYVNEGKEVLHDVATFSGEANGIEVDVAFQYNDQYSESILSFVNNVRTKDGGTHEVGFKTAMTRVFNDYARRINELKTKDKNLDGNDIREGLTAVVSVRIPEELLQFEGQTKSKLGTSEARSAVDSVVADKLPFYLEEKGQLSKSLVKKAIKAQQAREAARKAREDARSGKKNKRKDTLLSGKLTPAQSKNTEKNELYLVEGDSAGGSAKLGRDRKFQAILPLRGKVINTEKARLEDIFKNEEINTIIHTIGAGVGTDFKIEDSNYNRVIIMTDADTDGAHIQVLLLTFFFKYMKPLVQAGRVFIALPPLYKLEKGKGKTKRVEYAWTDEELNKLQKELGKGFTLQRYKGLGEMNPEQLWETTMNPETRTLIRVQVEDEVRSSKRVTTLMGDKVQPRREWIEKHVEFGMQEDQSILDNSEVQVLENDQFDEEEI
Sequence of TopoIV from S. aureus (P0C1U9 whole entry): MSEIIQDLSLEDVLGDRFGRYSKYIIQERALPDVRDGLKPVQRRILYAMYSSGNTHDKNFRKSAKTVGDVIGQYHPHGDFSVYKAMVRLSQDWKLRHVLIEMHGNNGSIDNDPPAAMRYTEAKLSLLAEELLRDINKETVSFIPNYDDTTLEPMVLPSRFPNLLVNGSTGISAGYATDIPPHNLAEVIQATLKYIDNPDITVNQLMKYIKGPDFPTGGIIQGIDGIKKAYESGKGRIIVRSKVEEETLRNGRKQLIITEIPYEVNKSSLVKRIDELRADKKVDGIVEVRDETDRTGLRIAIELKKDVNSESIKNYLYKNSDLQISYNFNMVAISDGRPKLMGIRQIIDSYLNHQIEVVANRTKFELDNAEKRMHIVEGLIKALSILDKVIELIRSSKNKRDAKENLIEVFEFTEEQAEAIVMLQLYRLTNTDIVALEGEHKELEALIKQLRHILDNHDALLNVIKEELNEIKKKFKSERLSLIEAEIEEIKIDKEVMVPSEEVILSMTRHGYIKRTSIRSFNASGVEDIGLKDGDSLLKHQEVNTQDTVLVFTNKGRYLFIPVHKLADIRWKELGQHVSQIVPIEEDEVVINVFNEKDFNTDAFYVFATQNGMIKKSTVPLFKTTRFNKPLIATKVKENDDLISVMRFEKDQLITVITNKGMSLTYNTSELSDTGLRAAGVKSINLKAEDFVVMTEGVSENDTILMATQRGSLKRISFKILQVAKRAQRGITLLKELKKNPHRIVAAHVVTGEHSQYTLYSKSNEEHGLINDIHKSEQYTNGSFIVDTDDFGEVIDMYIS

hERG = hERG (Homo sapiens, UniProt Q12809); test: hERG IC50, IonWorks Barracuda (Charles River)
Sequence of hERG (Q12809 whole entry): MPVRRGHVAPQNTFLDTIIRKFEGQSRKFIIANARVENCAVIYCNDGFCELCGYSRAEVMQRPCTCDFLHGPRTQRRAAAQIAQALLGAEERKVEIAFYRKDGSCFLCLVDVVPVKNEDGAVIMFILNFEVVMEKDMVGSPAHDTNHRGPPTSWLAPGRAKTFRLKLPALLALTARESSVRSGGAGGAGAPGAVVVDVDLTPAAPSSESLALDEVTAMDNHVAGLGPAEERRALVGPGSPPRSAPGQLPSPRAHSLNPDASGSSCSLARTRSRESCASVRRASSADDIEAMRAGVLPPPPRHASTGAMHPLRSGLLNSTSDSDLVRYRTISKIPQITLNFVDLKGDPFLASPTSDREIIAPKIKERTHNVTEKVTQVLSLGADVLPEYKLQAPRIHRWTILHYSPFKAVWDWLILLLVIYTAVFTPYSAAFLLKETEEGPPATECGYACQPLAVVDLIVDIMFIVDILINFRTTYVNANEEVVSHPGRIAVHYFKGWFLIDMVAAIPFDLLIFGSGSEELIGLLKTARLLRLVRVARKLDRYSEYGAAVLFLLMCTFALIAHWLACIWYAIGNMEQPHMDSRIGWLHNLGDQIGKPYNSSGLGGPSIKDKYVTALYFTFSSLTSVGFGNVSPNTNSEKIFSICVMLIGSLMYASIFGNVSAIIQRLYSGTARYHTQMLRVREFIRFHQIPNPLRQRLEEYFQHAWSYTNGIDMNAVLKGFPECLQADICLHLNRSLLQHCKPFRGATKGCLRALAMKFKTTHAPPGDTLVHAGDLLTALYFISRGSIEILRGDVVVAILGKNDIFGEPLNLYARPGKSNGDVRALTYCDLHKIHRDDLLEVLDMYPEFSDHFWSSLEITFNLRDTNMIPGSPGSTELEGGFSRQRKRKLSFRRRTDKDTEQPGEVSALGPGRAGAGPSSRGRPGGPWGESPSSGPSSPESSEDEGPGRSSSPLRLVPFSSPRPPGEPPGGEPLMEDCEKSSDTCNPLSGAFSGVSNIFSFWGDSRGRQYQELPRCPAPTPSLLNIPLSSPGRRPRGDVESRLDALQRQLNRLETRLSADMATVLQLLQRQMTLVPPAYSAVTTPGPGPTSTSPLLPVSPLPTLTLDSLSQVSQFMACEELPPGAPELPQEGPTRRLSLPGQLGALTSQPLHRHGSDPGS
Text: The design of these isomannide-detived NBTIs focused on enhanced polarity and modulation of basicity through the two electronegative oxygen atoms in the linker.

[3] = system: Mycobacterium avium complex (ATCC 700891 MAC 101); test: Ex vivo efficacy against M. avium; assay type: cell-based; details: concentration for >90% inhibition
Protocol: (§2) Ex vivo efficacy was determined by inhibition of Mycobacterium avium complex (ATCC 700891 MAC 101), and Mycobacterium abscessus (ATCC 19977). Cytotoxicity tests were carried out against three human cell lines, THP-1 (ATCC TIB-202), HepG2 (ATCC HB-8065), and HeLa (ATCC CCL-2). IC50 values were calculated from dose response curves to determine cytotoxicity of test compounds.

[4] = system: M tuberculosis H37Rv in THP-1 macrophages; test: Ex vivo efficacy against M. tuberculosis in THP-1 macrophages; assay type: cell-based, Mycobacterium tuberculosis
M. tuberculosis H37Rv = test: MIC, microbroth dilution, M. tuberculosis H37Rv; assay type: cell-based; details: Mycobacterium tuberculosis
[5] = system: Mycobacterium abscessus (ATCC 19977); test: Ex vivo efficacy against M. abscessus; assay type: cell-based; details: concentration for >90% inhibition
Protocol: as §2

S. aureus DNA gyrase = S. aureus DNA gyrase (Staphylococcus aureus, UniProt P20831); test: Inhibition of DNA gyrase, biochemical assay (Inspiralis); details: S. aureus DNA gyrase; Inspiralis, Ltd.; read-out: Gyrase IC50
Sequence of S. aureus DNA gyrase (P0A0K8 whole entry): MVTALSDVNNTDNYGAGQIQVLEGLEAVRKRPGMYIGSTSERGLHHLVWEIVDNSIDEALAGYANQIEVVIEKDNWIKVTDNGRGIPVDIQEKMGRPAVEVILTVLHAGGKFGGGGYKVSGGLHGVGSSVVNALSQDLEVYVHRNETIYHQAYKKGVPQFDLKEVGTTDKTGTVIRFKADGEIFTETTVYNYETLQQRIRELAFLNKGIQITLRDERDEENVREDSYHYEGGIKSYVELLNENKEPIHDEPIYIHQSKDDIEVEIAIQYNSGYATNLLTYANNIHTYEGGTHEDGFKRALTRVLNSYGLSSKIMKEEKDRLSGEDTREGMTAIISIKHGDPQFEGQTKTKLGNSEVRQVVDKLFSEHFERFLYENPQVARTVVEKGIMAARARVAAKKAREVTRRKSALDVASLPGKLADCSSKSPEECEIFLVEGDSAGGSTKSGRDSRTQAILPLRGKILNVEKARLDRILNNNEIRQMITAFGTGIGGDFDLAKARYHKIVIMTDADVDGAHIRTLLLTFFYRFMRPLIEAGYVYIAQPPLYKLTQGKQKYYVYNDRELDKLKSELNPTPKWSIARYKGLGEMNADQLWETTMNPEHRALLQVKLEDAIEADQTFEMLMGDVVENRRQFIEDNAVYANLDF
Sequence of S. aureus DNA gyrase (P20831 whole entry): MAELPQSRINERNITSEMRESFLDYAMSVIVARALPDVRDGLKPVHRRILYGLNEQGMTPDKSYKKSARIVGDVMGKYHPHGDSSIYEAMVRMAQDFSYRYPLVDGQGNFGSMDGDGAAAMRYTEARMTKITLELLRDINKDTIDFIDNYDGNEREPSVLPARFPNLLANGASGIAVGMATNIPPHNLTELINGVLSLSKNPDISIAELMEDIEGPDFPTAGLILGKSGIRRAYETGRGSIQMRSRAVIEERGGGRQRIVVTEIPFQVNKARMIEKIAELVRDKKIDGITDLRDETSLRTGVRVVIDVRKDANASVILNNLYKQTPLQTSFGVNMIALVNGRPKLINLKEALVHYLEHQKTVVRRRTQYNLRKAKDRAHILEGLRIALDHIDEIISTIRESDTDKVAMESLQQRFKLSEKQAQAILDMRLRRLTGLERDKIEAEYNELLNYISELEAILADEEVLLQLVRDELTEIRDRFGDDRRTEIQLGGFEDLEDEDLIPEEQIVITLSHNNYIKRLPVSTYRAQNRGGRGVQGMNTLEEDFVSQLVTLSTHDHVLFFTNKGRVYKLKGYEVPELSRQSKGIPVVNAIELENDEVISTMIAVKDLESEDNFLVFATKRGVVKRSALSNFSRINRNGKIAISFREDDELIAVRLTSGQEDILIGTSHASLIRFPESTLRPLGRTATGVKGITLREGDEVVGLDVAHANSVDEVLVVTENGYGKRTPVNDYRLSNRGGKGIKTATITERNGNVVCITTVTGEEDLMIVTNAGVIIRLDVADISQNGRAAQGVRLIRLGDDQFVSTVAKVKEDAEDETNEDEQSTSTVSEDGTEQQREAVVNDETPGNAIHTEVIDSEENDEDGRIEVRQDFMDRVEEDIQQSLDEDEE

M. abscessus 19977 = test: MIC, microbroth dilution, M. abscessus; assay type: cell-based, Mycobacterium abscessus; details: Mycobacteroides abscessus
Protocol: as §1

USA300 isolate of MRSA = test: MIC, CLSI broth microdilution, USA300 MRSA; assay type: cell-based; details: Staphylococcus aureus, read-out: MIC USA300
[6] = system: Klebsiella pneumoniae LSI-2999; details: previously published data for 27 and ciprofloxacin; cited from earlier work
[7] = system: Escherichia coli ATCC 25922; details: previously published data for 27 and ciprofloxacin; cited from earlier work
[8] = system: Enterococcus faecium LSI-3340; details: vancomycin-resistant strain; previously published data for 27 and ciprofloxacin; cited from earlier work
[9] = system: Enterococcus faecalis ATCC 29212; details: previously published data for 27 and ciprofloxacin; cited from earlier work
[10] = system: Streptococcus pyogenes LSI-1235; details: previously published data for 27 and ciprofloxacin; cited from earlier work
[11] = system: Pseudomonas aeruginosa LSI-2946; details: previously published data for 27 and ciprofloxacin; cited from earlier work
[12] = system: Enterococcus faecium DRL-4193; details: vancomycin-susceptible strain; previously published data for 27 and ciprofloxacin; cited from earlier work
MRSADRL-3161 = details: previously published data for 27 and ciprofloxacin; cited from earlier work
[13] = system: Streptococcus pneumoniae LSI-4234; details: penicillin-susceptible strain; previously published data for 27 and ciprofloxacin; cited from earlier work
S. aureus ATCC 29213 [14] = details: previously published data for 27 and ciprofloxacin; cited from earlier work
[15] = system: Acinetobacter baumannii LSI-2957; details: previously published data for 27 and ciprofloxacin; cited from earlier work
[16] = system: Enterobacter cloacae LSI-2943; details: previously published data for 27 and ciprofloxacin; cited from earlier work
[17] = system: Streptococcus pneumoniae LSI-4246; details: penicillin-resistant strain; previously published data for 27 and ciprofloxacin; cited from earlier work
[18] = CLSI broth microdilution, ciprofloxacin-resistant MRSA

Compound	MIC (S. aureus ATCC 29213 [1])	MIC ([2]; CLSI broth microdilution)	MIC (M. avium 700891)	IC50 (TopoIV from S. aureus)	TopoIV/gyrase IC50 ratio (TopoIV from S. aureus)	Ex vivo efficacy M. avium (>90% inhibition) [3]	M. tuberculosis ex vivo efficacy (% inhibition at MIC) [4]	MIC (M. tuberculosis H37Rv)	Ex vivo efficacy M. abscessus (>90% inhibition) [5]	IC50 (S. aureus DNA gyrase)	MIC (M. abscessus 19977)	MIC (USA300 isolate of MRSA; [18])	MIC Klebsiella pneumoniae LSI-2999 [6]	MIC Escherichia coli ATCC 25922 (n = 2) [7]	MIC Enterococcus faecalis ATCC 29212 [9]	MIC Streptococcus pyogenes LSI-1235 [10]	MIC Pseudomonas aeruginosa LSI-2946 [11]	MIC Enterococcus faecium DRL-4193 [12]	MIC Acinetobacter baumannii LSI-2957 [15]	MIC Streptococcus pneumoniae LSI-4246 [17]	other results
COc1ccc2ncc(F)c(CC[C@@]3(O)CO[C@@H]4[C@@H](NCc5ccc(C)cc5)CO[C@@H]43)c2n1 [Compound 25, (3R,3aS,6S,6aR)-3-(2-(3-fluora-6-methoxy-1,5-naphthyridin-4-yl)ethyl)-6-((4-methyllbenzyl)amino)hexahydrofuro[3,2-b]furan-3-ol]	1 to 2 µg/mL (≈ 2.21 to 4.41 µM)	2 µg/mL (≈ 4.41 µM)	16 µg/mL (≈ 35.3 µM)	7500 nM	42	>128 µg/mL	80%	8 µg/mL (≈ 17.6 µM)	>128 µg/mL	180 nM	8 µg/mL (≈ 17.6 µM)	2 µg/mL (≈ 4.41 µM)	–	–	–	–	–	–	–	–	IC50 (hERG; read-out: hERG IC50, IonWorks Barracuda): 4200 nM
COc1ccc2ncc(F)c(CC[C@@]3(O)CO[C@@H]4[C@@H](NCc5ccc(Cl)c(Cl)c5)CO[C@@H]43)c2n1 [Compound 26, (3R,3aS,6S,6aR)-6-((3,4-dichlorobenzyl)amino)-3-(2-(3-fluoro-6-methoxy-1,5-napkthyridin-4-yl)ethyl)hexahydrofuro[3,2-b]-furan-3-ol]	0.25 to 0.5 µg/mL (≈ 0.492 to 0.984 µM)	0.5 µg/mL (≈ 0.984 µM)	1 µg/mL (≈ 1.97 µM)	2900 nM	–	>128 µg/mL	90%	2 µg/mL (≈ 3.93 µM)	32 µg/mL	200 nM	8 µg/mL (≈ 15.7 µM)	0.5 µg/mL (≈ 0.984 µM)	–	–	–	–	–	–	–	–	–
COc1ccc2ncc(F)c(CCC3OCC(NCc4ccc5c(c4)OCCO5)CO3)c2n1 (stereo not drawn) [Compound 27]	≤ 0.25 µg/mL	0.25 µg/mL (≈ 0.549 µM)	–	1000 nM	33	–	–	–	–	30 nM	–	0.125 to 0.25 µg/mL (≈ 0.274 to 0.549 µM)	>64 µg/mL	16 µg/mL (≈ 35.1 µM)	0.5 µg/mL (≈ 1.1 µM)	≤0.06 µg/mL	4 µg/mL (≈ 8.78 µM)	0.12^f μg/mL	2 µg/mL (≈ 4.39 µM)	≤0.06 µg/mL	MIC Enterococcus faecium LSI-3340 [8]: 0.12 µg/mL (≈ 0.263 µM); MIC MRSADRL-3161 (MRSADRL-3161): ≤0.06 µg/mL; MIC Streptococcus pneumoniae LSI-4234 [13]: 0.25 µg/mL (≈ 0.549 µM); IC50 (hERG): 8000 nM; MIC S. aureus ATCC 29213 (n = 3) (S. aureus ATCC 29213 [14]): ≤0.06^b μg/mL; MIC Enterobacter cloacae LSI-2943 [16]: 32 µg/mL (≈ 70.3 µM)
O=C(O)c1cn(C2CC2)c2cc(N3CCNCC3)c(F)cc2c1=O [ciprofloxacin]	–	–	–	–	–	–	–	–	–	–	–	–	0.25 µg/mL (≈ 0.754 µM)	≤0.06 µg/mL	0.5 µg/mL (≈ 1.51 µM)	0.25 µg/mL (≈ 0.754 µM)	0.5 µg/mL (≈ 1.51 µM)	0.25 µg/mL (≈ 0.754 µM)	0.25 µg/mL (≈ 0.754 µM)	0.5 µg/mL (≈ 1.51 µM)	–
CN[C@H](CC(C)C)C(=O)N[C@H]1C(=O)N[C@@H](CC(N)=O)C(=O)N[C@H]2C(=O)N[C@H]3C(=O)N[C@H](C(=O)N[C@H](C(=O)O)c4cc(O)cc(O)c4-c4cc3ccc4O)[C@H](O)c3ccc(c(Cl)c3)Oc3cc2cc(c3O[C@@H]2O[C@H](CO)[C@@H](O)[C@H](O)[C@H]2O[C@H]2C[C@](C)(N)[C@H](O)[C@H](C)O2)Oc2ccc(cc2Cl)[C@H]1O [vancomycin, reference compound]	–	–	–	–	–	–	–	–	–	–	–	–	–	–	–	–	–	–	–	–	MIC [2]: 1 to 2 µg/mL (≈ 0.69 to 1.38 µM); MIC (USA300 isolate of MRSA): 1 to 2 µg/mL (≈ 0.69 to 1.38 µM)
